Reference: patent US11738008B2, “N-methyl-D-aspartic acid receptor modulators” (Emory University, priority 2018, dated 2023)

Experiments:
α2A = α2A (Homo sapiens, UniProt P08913); experiment: NIMH PDSP radioligand binding, α2A; conditions: read-out: Radioligand binding in 10 μM compound (% control)
Procedure: (§1) The NIMH PDSP is Directed by Bryan L. Roth at the University of North Carolina at Chapel Hill and Project Officer Jamie Driscoll at NIMH, Bethesda Md., USA. Radioligand binding was measured in the presence of 10 μM 1180-420 and 1180-447. […] For experimental details please refer to the PDSP web site https://pdsp.unc.edu/ims/investigator/web/. Both 1180-420 and 1180-447 were also tested at AMPA, nicotinic acetylcholine, serotonin, GABA, and glycine ion channels using a two-electrode voltage clamp assay.
(§2) Receptor binding profiles of compound 1180-447 were generously provided by the National Institute of Mental Health's Psychoactive Drug Screening Program, Contract # HHSN-271-2013-00017-C(NIMH PDSP). The NIMH PDSP is directed by Bryan L. Roth at the University of North Carolina at Chapel Hill and Project Officer Jamie Driscoll at NIMH, Bethesda Md., USA. Radioligand binding was measured in the presence of 10 μM 1180-447. […] For experimental details please refer to the PDSP web site https://pdsp.unc.edu/ims/investigator/web/.
(§3) The NIMH PDSP is Directed by Bryan L. Roth at the University of North Carolina at Chapel Hill and Project Officer Jamie Driscoll at NIMH, Bethesda Md., USA. Radioligand binding was measured in the presence of 10 μM 1180-420. […] For experimental details please refer to the PDSP web site https://pdsp.unc.edu/ims/investigator/web/.

GluA2 = target: T1, GluA2 (Homo sapiens, UniProt P42262); experiment: Off-target two-electrode voltage clamp assay, GluA2; type: cell-based; conditions: 10 μM, mean ± SEM
T1 construct: expressed in transfected cells
Procedure: as §1

κ-opioid receptor = κ-opioid receptor (Homo sapiens, UniProt P41145); experiment: NIMH PDSP radioligand binding, κ-opioid receptor; conditions: for remaining activity at 10 µM: read-out: Radioligand binding in 10 μM compound (% control); for Ki: read-out: pKi values from non-linear regression of radioligand competition binding isotherms (converted)
Chain of κ-opioid receptor (P41145 whole entry): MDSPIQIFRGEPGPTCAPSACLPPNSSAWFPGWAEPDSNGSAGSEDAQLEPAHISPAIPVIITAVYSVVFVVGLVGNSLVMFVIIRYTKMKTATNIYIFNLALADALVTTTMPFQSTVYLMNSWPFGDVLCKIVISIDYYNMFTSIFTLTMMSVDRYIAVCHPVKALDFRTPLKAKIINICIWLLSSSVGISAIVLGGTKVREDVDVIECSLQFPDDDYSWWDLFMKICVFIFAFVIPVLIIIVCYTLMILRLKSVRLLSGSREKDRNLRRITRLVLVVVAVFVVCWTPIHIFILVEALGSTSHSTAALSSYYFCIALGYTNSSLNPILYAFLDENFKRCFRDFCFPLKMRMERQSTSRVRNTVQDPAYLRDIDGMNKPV
Procedure: as §1, §2, §3

5-HT1D = target: T2, 5-HT1D (Homo sapiens, UniProt P28221); experiment: NIMH PDSP radioligand binding, 5-HT1D; conditions: read-out: Radioligand binding in 10 μM compound (% control)
T2 construct: NIMH PDSP (assay provider)
T2 sequence (P28221 whole entry, species assumed): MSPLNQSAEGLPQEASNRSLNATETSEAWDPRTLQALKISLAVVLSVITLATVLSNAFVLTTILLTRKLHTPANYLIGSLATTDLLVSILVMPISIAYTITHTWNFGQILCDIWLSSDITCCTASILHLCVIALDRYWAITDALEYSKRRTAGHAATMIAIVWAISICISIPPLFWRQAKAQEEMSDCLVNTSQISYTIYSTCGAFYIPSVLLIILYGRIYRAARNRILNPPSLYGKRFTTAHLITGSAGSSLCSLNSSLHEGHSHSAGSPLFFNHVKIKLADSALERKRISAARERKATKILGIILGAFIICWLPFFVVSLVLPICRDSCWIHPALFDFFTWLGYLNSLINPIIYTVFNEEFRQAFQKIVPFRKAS
Procedure: as §1, §2, §3

M4 = M4 (Homo sapiens, UniProt P08173); experiment: NIMH PDSP radioligand binding, M4; conditions: read-out: Radioligand binding in 10 μM compound (% control)
Chain of M4 (P08173 whole entry): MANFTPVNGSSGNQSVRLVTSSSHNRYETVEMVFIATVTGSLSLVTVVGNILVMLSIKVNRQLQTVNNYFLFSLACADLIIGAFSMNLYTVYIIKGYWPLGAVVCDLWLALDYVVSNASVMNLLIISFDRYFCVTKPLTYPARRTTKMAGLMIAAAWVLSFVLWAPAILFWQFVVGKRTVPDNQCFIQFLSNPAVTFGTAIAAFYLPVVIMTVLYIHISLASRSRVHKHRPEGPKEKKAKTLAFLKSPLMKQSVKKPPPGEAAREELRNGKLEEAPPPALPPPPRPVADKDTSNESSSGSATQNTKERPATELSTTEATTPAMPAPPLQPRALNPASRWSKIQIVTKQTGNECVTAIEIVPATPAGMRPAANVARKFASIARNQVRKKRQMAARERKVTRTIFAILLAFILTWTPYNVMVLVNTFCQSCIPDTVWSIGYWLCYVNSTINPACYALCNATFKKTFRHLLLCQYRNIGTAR
Procedure: as §1, §2, §3

5-HT2A = target: T3, 5-HT2A (Homo sapiens, UniProt P28223); experiment: NIMH PDSP radioligand binding, 5-HT2A; conditions: for remaining activity at 10 µM: read-out: Radioligand binding in 10 μM compound (% control)
T3 construct: NIMH PDSP (assay provider)
T3 sequence (P28223 whole entry, species assumed): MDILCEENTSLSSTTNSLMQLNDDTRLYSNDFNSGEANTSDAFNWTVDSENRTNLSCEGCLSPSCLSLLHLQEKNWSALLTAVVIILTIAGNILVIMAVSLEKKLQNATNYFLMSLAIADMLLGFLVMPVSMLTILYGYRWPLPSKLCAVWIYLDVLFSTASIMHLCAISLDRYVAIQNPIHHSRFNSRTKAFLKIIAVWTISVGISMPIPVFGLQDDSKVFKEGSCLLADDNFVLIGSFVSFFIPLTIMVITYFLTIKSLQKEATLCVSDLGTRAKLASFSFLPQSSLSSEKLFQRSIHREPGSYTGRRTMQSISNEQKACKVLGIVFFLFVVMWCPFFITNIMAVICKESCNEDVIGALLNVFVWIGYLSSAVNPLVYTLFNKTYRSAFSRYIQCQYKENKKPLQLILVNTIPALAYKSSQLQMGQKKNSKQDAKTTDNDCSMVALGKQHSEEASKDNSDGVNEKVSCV
Procedure: as §1, §2, §3

β3 = β3 (Homo sapiens, UniProt P13945); experiment: NIMH PDSP radioligand binding, β3; conditions: read-out: Radioligand binding in 10 μM compound (% control)
Chain of β3 (P13945 whole entry): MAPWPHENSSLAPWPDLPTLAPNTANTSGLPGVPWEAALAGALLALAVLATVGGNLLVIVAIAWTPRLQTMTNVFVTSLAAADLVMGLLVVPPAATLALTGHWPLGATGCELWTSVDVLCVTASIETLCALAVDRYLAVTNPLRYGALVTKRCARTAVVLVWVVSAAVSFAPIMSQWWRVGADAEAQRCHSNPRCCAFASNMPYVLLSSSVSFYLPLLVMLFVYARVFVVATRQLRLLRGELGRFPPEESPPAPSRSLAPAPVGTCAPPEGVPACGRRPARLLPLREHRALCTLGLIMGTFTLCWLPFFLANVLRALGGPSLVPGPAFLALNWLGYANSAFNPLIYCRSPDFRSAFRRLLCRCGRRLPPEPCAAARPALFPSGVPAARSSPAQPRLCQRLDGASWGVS
Procedure: as §1, §2, §3

α1B = α1B (Homo sapiens, UniProt P35368); experiment: NIMH PDSP radioligand binding, α1B; conditions: read-out: Radioligand binding in 10 μM compound (% control)
Procedure: as §1, §2, §3

5-HT1E = target: T4, 5-HT1E (Homo sapiens, UniProt P28566); experiment: NIMH PDSP radioligand binding, 5-HT1E; conditions: read-out: Radioligand binding in 10 μM compound (% control)
T4 construct: NIMH PDSP (assay provider)
Procedure: as §1, §2, §3

α4β2-nACh = target: T5, α4β2-nACh (Homo sapiens, UniProt P17787+P43681); experiment: Off-target two-electrode voltage clamp assay, α4β2-nACh; type: cell-based; conditions: 10 μM, mean ± SEM
T5 construct: expressed in transfected cells
Procedure: as §1

hERG = hERG (Homo sapiens, UniProt Q12809); experiment: NIMH PDSP hERG binding
Chain of hERG (Q12809 whole entry): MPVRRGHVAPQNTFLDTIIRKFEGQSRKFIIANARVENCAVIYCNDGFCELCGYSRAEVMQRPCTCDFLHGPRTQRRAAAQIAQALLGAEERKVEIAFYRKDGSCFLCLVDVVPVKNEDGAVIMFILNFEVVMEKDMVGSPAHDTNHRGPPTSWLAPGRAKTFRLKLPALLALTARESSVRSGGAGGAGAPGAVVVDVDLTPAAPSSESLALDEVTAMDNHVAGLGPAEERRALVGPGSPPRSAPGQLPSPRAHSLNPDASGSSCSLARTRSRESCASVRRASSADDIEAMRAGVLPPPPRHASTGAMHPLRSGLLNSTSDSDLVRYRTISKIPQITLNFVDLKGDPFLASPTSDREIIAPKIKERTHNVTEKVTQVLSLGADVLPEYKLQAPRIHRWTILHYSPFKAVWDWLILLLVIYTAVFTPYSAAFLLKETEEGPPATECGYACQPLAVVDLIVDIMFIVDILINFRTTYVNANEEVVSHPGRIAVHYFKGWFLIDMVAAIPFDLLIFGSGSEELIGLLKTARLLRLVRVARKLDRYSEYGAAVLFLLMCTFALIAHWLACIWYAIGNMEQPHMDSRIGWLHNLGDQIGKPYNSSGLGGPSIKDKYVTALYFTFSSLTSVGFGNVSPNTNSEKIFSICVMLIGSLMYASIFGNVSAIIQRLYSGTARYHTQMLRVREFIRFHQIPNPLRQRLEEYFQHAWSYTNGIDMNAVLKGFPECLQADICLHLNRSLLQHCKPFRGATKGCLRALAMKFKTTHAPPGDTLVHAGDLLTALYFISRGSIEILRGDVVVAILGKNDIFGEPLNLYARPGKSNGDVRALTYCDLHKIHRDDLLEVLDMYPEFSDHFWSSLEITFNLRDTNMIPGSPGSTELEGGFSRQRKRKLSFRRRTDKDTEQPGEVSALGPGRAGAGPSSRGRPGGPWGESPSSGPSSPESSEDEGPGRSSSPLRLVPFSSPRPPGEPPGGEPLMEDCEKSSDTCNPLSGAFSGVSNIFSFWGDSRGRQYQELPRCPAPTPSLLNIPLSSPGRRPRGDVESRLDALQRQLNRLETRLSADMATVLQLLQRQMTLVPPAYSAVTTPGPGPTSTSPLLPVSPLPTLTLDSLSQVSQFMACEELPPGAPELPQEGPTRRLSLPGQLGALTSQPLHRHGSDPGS
Procedure: as §1, §2, §3

α2C = α2C (Homo sapiens, UniProt P18825); experiment: NIMH PDSP radioligand binding, α2C; conditions: read-out: Radioligand binding in 10 μM compound (% control)
Procedure: as §1, §2, §3

D4 = target: T6, D4 (Homo sapiens, UniProt P21917); experiment: NIMH PDSP radioligand binding, D4; conditions: read-out: Radioligand binding in 10 μM compound (% control)
T6 construct: NIMH PDSP (assay provider)
T6 sequence (P21917 whole entry): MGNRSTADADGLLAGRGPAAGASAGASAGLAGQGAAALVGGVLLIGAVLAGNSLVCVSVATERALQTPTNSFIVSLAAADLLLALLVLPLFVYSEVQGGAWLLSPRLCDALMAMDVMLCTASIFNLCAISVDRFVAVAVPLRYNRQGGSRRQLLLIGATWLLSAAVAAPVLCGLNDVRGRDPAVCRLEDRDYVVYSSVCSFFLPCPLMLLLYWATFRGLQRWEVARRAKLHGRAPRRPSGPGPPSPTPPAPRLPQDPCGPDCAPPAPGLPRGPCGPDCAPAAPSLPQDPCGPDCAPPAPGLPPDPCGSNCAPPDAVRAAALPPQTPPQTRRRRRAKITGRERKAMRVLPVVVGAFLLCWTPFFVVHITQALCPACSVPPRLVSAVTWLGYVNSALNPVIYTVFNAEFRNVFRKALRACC
Procedure: as §1, §2, §3

D1 = target: T7, D1 (Homo sapiens, UniProt P21728); experiment: NIMH PDSP radioligand binding, D1; conditions: read-out: Radioligand binding in 10 μM compound (% control)
T7 construct: NIMH PDSP (assay provider)
Procedure: as §1, §2, §3

5-HT5A = target: T8, 5-HT5A (Homo sapiens, UniProt P47898); experiment: NIMH PDSP radioligand binding, 5-HT5A; conditions: read-out: Radioligand binding in 10 μM compound (% control)
T8 construct: NIMH PDSP (assay provider)
Procedure: as §1, §2, §3

5-HT2B = target: T9, 5-HT2B (Homo sapiens, UniProt P41595); experiment: NIMH PDSP radioligand binding, 5-HT2B; conditions: read-out: Radioligand binding in 10 μM compound (% control)
T9 construct: NIMH PDSP (assay provider)
Procedure: as §1, §2, §3

H2 = H2 (Homo sapiens, UniProt P25021); experiment: NIMH PDSP radioligand binding, H2; conditions: read-out: Radioligand binding in 10 μM compound (% control)
Procedure: as §1, §2, §3

M1 = M1 (Homo sapiens, UniProt P11229); experiment: NIMH PDSP radioligand binding, M1; conditions: read-out: Radioligand binding in 10 μM compound (% control)
Procedure: as §1, §2, §3

M5 = M5 (Homo sapiens, UniProt P08912); experiment: NIMH PDSP radioligand binding, M5; conditions: read-out: Radioligand binding in 10 μM compound (% control)
Chain of M5 (P08912 whole entry): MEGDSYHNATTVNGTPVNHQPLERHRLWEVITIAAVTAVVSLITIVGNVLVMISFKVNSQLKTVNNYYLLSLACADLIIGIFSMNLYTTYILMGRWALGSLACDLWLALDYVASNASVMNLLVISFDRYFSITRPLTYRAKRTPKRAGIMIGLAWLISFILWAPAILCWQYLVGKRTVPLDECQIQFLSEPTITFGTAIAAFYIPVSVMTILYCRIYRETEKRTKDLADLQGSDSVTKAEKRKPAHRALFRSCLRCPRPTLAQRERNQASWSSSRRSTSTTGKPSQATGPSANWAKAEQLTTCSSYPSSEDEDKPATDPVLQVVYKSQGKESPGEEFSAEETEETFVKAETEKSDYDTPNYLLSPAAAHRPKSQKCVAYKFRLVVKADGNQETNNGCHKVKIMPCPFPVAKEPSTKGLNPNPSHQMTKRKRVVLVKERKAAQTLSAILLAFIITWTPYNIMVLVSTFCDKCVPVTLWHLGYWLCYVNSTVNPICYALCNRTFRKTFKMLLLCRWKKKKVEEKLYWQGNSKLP
Procedure: as §1, §2, §3

5-HT6 = target: T10, 5-HT6 (Homo sapiens, UniProt P50406); experiment: NIMH PDSP radioligand binding, 5-HT6; conditions: read-out: Radioligand binding in 10 μM compound (% control)
T10 construct: NIMH PDSP (assay provider)
T10 sequence (P50406 whole entry, species assumed): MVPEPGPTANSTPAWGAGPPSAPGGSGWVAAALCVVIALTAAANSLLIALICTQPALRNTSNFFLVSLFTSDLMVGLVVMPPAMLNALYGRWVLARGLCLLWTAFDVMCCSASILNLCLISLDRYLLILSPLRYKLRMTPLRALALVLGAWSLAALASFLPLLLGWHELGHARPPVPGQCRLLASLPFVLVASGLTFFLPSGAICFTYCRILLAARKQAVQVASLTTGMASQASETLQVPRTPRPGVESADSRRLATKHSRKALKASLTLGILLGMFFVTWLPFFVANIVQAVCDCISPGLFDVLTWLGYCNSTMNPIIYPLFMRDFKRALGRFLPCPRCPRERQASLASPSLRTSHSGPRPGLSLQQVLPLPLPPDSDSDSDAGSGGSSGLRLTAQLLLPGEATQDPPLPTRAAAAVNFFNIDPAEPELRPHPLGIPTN
Procedure: as §1, §2, §3

CNS receptors = experiment: Off-target profile, NIMH PDSP CNS receptors (panel summary); type: binding; conditions: 10 μM
Procedure: as §1, §2, §3

5-HT2C = target: T11, 5-HT2C (Homo sapiens, UniProt P28335); experiment: NIMH PDSP radioligand binding, 5-HT2C; conditions: for remaining activity at 10 µM: read-out: Radioligand binding in 10 μM compound (% control)
T11 construct: NIMH PDSP (assay provider)
T11 sequence (P28335 33-458): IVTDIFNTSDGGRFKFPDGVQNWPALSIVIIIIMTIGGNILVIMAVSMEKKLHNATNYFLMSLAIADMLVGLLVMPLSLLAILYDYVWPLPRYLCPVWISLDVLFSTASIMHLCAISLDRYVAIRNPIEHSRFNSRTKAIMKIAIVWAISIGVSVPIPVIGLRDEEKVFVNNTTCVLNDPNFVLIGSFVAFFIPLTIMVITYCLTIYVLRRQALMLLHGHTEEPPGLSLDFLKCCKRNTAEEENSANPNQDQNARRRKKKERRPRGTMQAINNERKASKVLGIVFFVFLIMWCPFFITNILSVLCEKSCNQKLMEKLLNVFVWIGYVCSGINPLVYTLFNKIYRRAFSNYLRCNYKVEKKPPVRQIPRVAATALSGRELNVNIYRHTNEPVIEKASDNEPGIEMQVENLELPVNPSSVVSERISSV
Procedure: as §1, §2, §3

M2 = M2 (Homo sapiens, UniProt P08172); experiment: NIMH PDSP radioligand binding, M2; conditions: read-out: Radioligand binding in 10 μM compound (% control)
Procedure: as §1, §2, §3

β1 = β1 (Homo sapiens, UniProt P08588); experiment: NIMH PDSP radioligand binding, β1; conditions: read-out: Radioligand binding in 10 μM compound (% control)
Procedure: as §1, §2, §3

α1β2γδ-nACh = experiment: Off-target two-electrode voltage clamp assay, α1β2γδ-nACh; type: cell-based; conditions: 10 μM, mean ± SEM
Procedure: as §1

D3 = target: T12, D3 (Homo sapiens, UniProt P35462); experiment: NIMH PDSP radioligand binding, D3; conditions: read-out: Radioligand binding in 10 μM compound (% control)
T12 construct: NIMH PDSP (assay provider)
Procedure: as §1, §2, §3

GABAA = experiment: NIMH PDSP radioligand binding, GABAA
Procedure: as §1, §2, §3

H1 = H1 (Homo sapiens, UniProt P35367); experiment: NIMH PDSP radioligand binding, H1; conditions: read-out: Radioligand binding in 10 μM compound (% control)
Procedure: as §1, §2, §3

5-HT3 = target: T13, 5-HT3 (Homo sapiens, UniProt P46098); experiment: NIMH PDSP radioligand binding, 5-HT3; conditions: read-out: Radioligand binding in 10 μM compound (% control)
T13 construct: NIMH PDSP (assay provider)
Procedure: as §1, §2, §3

[1] = read-out: pKi values from non-linear regression of radioligand competition binding isotherms (converted)

`COc1ccc(OCC2c3cccn3CCN2C(=O)c2cccc(Cl)c2)cc1` (centres unmarked) [1180-420, (3-Chlorophenyl)(1-((4-methoxyphenoxy)methyl)-3,4-dihydropyrrolo[1,2-a]pyrazin-2(1H)-yl)methanone] was tested, and the remaining activity at 10 µM (α2A) was 79%, the “% control response” value (GluA2) was 101.6 ± 1.3 % control response and the remaining activity at 10 µM (κ-opioid receptor) was 32%. For the same compound, the Ki (κ-opioid receptor) was 1580 nM, the remaining activity at 10 µM (5-HT1D) was 112% and the remaining activity at 10 µM (M4) was 84%. The remaining activity at 10 µM (5-HT2A) was 69%, the remaining activity at 10 µM (β3) was 74% and the remaining activity at 10 µM (α1B) was 100%. For the same compound, the remaining activity at 10 µM (5-HT1E) was 78%, the “% control response” value (α4β2-nACh) was 56.4 ± 5.3 % control response and the “Radioligand binding in 10 μM compound (% control)” value (“Radioligand binding … (% control)” for short) (hERG) was 73 % control. The remaining activity at 10 µM (α2C) was 83%, the remaining activity at 10 µM (D4) was 90% and the remaining activity at 10 µM (D1) was 59%. The remaining activity at 10 µM (5-HT5A) was 95%, the remaining activity at 10 µM (5-HT2B) was 97% and the remaining activity at 10 µM (H2) was 75%. The remaining activity at 10 µM (M1) was 90%, the remaining activity at 10 µM (M5) was 101% and the remaining activity at 10 µM (5-HT6) was 75%. The “receptors with >50% inhibition / receptors tested” value (CNS receptors) was 4/44, the remaining activity at 10 µM (5-HT2C) was 113% and the remaining activity at 10 µM (M2) was 110%. For the same compound, the remaining activity at 10 µM (β1) was 98%, the “% control response” value (α1β2γδ-nACh) was 93.4 ± 15.5 % control response and the remaining activity at 10 µM (D3) was 71%. For the same compound, the “Radioligand binding … (% control)” value (GABAA) was 110 % control, the remaining activity at 10 µM (H1) was 74% and the remaining activity at 10 µM (5-HT3) was 116%.
In the case of `COc1ccc(OCC2c3cccn3CC(=O)N2Cc2cccc(C(F)(F)F)c2)cc1` (racemic) [1180-447, 1-((4-Methoxyphenoxy)methyl)-2-(3-(trifluoromethyl)benzyl)-1,2-dihydropyrrolo[1,2-a]pyrazin-3(4H)-one], the remaining activity at 10 µM (α2A) is reported as 98%, the “% control response” value (GluA2) is reported as 99.3 ± 2.9 % control response and the remaining activity at 10 µM (κ-opioid receptor) is reported as 47%. The Ki (κ-opioid receptor) was 1580 nM, the remaining activity at 10 µM (5-HT1D) was 115% and the remaining activity at 10 µM (M4) was 100%. For the same compound, the remaining activity at 10 µM (5-HT2A) was 49%, the Ki (5-HT2A; [1]) was 2000 nM and the remaining activity at 10 µM (β3) was 73%. For the same compound, the remaining activity at 10 µM (α1B) was 102%, the remaining activity at 10 µM (5-HT1E) was 80% and the “% control response” value (α4β2-nACh) was 52.7 ± 6.3 % control response. For the same compound, the “Radioligand binding … (% control)” value (hERG) was 70 % control, the remaining activity at 10 µM (α2C) was 85% and the remaining activity at 10 µM (D4) was 101%. For the same compound, the remaining activity at 10 µM (D1) was 87%, the remaining activity at 10 µM (5-HT5A) was 92% and the remaining activity at 10 µM (5-HT2B) was 78%. For the same compound, the remaining activity at 10 µM (H2) was 103%, the remaining activity at 10 µM (M1) was 88% and the remaining activity at 10 µM (M5) was 108%. The remaining activity at 10 µM (5-HT6) was 85%, the “receptors with >50% inhibition / receptors tested” value (CNS receptors) was 4/44 and the remaining activity at 10 µM (5-HT2C) was 32%. For the same compound, the Ki (5-HT2C; [1]) was greater than 10000 nM, the remaining activity at 10 µM (M2) was 90% and the remaining activity at 10 µM (β1) was 80%. For the same compound, the “% control response” value (α1β2γδ-nACh) was 78.5 ± 4.5 % control response, the remaining activity at 10 µM (D3) was 93% and the “Radioligand binding … (% control)” value (GABAA) was 118 % control. The remaining activity at 10 µM (H1) was 86% and the remaining activity at 10 µM (5-HT3) was 68%.
